# Test results: patent US11999727B2 (Tango Therapeutics, Inc., priority 2020, dated 2024)
# Like-named read-outs stand apart in the source and are kept apart here.
# How the values were obtained:
# [1] = target: T1, PRMT5 (Homo sapiens, UniProt O14744); assay: PRMT5 biochemical IC50 assay with SAM as cofactor; conditions: PRMT5, SAM as cofactor; read-out: SAM IC50
# T1 construct: purchased Viva (custom protein)
# [2] = target: T1, PRMT5; assay: PRMT5 biochemical IC50 assay with no cofactor; conditions: PRMT5, no cofactor; read-out: No Cofactor/ rel IC50
# Description: Table 1 indicates IC50 values (μM) against PRMT5 for exemplary compounds in the presence of SAM as cofactor, with no cofactor, and with MTA as cofactor, respectively (columns 4-6). […] Ki values can be calculated from the IC50 values as described in the Examples section. As detailed in the Examples section, for the assay performed in the presence of SAM, IC50=Ki×1.5 (Ki=IC50/1.5).
# [3] = target: T1, PRMT5; assay: PRMT5 biochemical IC50 assay with MTA as cofactor; conditions: PRMT5, MTA as cofactor; read-out: MTA IC50
# [4] = test system: HAP1 MTAP-intact cell line; assay: SDMA in-cell western assay, HAP1 MTAP-intact; assay type: cell-based; conditions: HAP1 MTAP-intact, read-out: MTAP HAP1 intact IC50
# In short: (§1)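 Readout: in-cell western detection of SDMA. Cells: HAP1 expressing endogenous MTAP and an MTAP-null HAP1 counterpart. Output: IC50.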
# [5] = test system: HAP1 MTAP-deleted cell line; assay: SDMA in-cell western assay, HAP1 MTAP-deleted; assay type: cell-based; conditions: for IC50: HAP1 MTAP-deleted, read-out: HAP 1 MTAP deleted IC50; for MTAP intact/deleted ratio: IC50 ratio HAP1 MTAP-intact / HAP1 MTAP-deleted
# In short: as §1
# [6] = test system: HAP1 MTAP-deleted cell line; assay: Viability assay, MTAP-deleted cell line; assay type: cell-based; conditions: MTAP-deleted cell line, read-out: HAP1 MTAP deleted viability
# Description: Table 1 additionally indicates IC50 values in a viability assay for the MTAP-deleted cell line (column 10), indicating the effect of treatment with compound on cell survival.
# [7] = Homo sapiens, HAP1, SDMA in-cell western
# [8] = Homo sapiens, HAP1, viability assay
# T1 sequence (O14744 whole entry): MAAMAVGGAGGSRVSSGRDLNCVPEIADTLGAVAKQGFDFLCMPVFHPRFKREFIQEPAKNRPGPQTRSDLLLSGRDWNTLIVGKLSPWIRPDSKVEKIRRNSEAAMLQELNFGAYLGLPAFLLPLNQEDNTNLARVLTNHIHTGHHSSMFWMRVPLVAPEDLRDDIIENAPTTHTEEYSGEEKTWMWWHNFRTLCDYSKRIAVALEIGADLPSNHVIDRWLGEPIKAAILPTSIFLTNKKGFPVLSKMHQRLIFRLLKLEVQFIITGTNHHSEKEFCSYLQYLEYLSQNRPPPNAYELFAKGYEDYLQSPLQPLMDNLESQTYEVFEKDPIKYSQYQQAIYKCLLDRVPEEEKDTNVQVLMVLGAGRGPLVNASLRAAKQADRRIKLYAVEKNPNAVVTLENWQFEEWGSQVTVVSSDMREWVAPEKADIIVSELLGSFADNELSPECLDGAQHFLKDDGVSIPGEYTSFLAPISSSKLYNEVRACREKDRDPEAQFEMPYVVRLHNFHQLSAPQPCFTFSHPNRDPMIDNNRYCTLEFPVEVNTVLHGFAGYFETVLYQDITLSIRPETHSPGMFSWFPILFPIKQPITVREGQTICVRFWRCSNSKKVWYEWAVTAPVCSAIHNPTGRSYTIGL
# T1 sequence (Q9BQA1 whole entry partner): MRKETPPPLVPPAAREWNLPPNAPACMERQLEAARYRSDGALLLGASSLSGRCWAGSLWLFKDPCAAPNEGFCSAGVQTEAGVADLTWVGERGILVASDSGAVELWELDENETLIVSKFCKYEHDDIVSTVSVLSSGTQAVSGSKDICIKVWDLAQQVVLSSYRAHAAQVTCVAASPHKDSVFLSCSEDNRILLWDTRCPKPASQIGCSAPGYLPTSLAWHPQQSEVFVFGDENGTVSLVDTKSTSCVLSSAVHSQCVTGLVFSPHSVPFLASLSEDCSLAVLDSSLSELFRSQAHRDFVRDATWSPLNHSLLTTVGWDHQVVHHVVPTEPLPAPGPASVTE
SMILES,IC50 [1] [nM],IC50 [2] [nM],IC50 [3] [nM],"IC50 [4, 7] [nM]","IC50 [5, 7] [nM]",MTAP intact/deleted ratio ([5]; SDMA in-cell western),"IC50 [6, 8] [nM]",IC50 ([4]; SDMA in-cell western) [nM],IC50 ([5]; SDMA in-cell western) [nM],IC50 ([6]; viability assay) [nM]
"Cc1cncc(NC(=O)C(=O)N2C[C@H](C)CC[C@H]2c2cccs2)c1 (single isomer, unassigned) [Compound 68]",50 to 500,50 to 500,< 50,> 1000,100 to 1000,A (an IC50 ratio greater than or equal to 10 fold),> 10000,–,–,–
"Cc1cc(NC(=O)C(=O)N2CCCC[C@H]2c2cccnc2)cnc1N (single isomer, unassigned) [Compound 69]",50 to 500,50 to 500,< 50,> 1000,100 to 1000,A (an IC50 ratio greater than or equal to 10 fold),> 10000,–,–,–
"CC(=O)N1CCC(c2cccc(C3CCCCN3C(=O)C(=O)Nc3cncc(C)c3)c2)CC1 (single isomer, unassigned) [Compound 73]",> 500,> 500,> 500,> 1000,> 1000,C (an IC50 ratio of less than 3 fold),> 10000,–,–,–
"CC(=O)N1CCC(c2cccc(C3CCCCN3C(=O)C(=O)Nc3cncc(C)c3)c2)CC1 (single isomer, unassigned) [Compound 78]",> 500,> 500,50 to 500,–,–,C (an IC50 ratio of less than 3 fold),–,> 1000,> 1000,> 10000
"NC(=O)c1cncc(NC(=O)C(=O)N2CCCC[C@@H]2c2ccccc2)c1 (single isomer, unassigned) [Compound 85]",50 to 500,50 to 500,< 50,> 1000,100 to 1000,A (an IC50 ratio greater than or equal to 10 fold),> 10000,–,–,–
"Cc1cncc(NC(=O)C(=O)N2C[C@@H](C)CC[C@@H]2c2cccc(Cl)c2)c1 (single isomer, unassigned) [Compound 87]",50 to 500,50 to 500,50 to 500,> 1000,> 1000,C (an IC50 ratio of less than 3 fold),> 10000,–,–,–
"Cc1cncc(NC(=O)C(=O)N2C[C@H](C)CC[C@H]2c2cccc(Cl)c2)c1 (single isomer, unassigned) [Compound 90]",> 500,> 500,> 500,> 1000,> 1000,C (an IC50 ratio of less than 3 fold),> 10000,–,–,–
"Cc1cncc(NC(=O)C(=O)N2C[C@H](C)CCC2c2cccc(F)c2)c1 (single isomer, unassigned) [Compound 93]",50 to 500,> 500,50 to 500,> 1000,> 1000,C (an IC50 ratio of less than 3 fold),> 10000,–,–,–
"CC(=O)N1CCC(c2cccc(C3CCCCN3C(=O)C(=O)Nc3cnc(N)c(C)c3)c2)CC1 (single isomer, unassigned) [Compound 94]",50 to 500,50 to 500,< 50,–,< 100,B (an IC50 ratio greater than or equal to 3 fold but lower than 10 fold),–,100 to 1000,–,1000 to 10000
"CC(=O)N1CCC(c2cccc(C3CCCCN3C(=O)C(=O)Nc3cnc(N)c(C)c3)c2)CC1 (single isomer, unassigned) [Compound 96]",50 to 500,50 to 500,< 50,–,–,A (an IC50 ratio greater than or equal to 10 fold),–,> 1000,100 to 1000,> 10000
"NC(=O)c1cncc(NC(=O)C(=O)N2CCCC[C@H]2c2ccccc2)c1 (single isomer, unassigned) [Compound 97]",> 500,> 500,50 to 500,> 1000,> 1000,C (an IC50 ratio of less than 3 fold),> 10000,–,–,–
"C[C@H]1CC[C@@H](c2cccnc2)N(C(=O)C(=O)Nc2cncc(C(N)=O)c2)C1 (single isomer, unassigned) [Compound 104]",50 to 500,> 500,50 to 500,> 1000,> 1000,B (an IC50 ratio greater than or equal to 3 fold but lower than 10 fold),> 10000,–,–,–
"C[C@H]1CC[C@H](c2cccnc2)N(C(=O)C(=O)Nc2cncc(C(N)=O)c2)C1 (single isomer, unassigned) [Compound 105]",> 500,> 500,> 500,> 1000,> 1000,C (an IC50 ratio of less than 3 fold),> 10000,–,–,–
"C[C@@H]1CC[C@@H](c2cccnc2)N(C(=O)C(=O)Nc2cncc(C(N)=O)c2)C1 (single isomer, unassigned) [Compound 106]",< 50,50 to 500,< 50,> 1000,< 100,A (an IC50 ratio greater than or equal to 10 fold),1000 to 10000,–,–,–
"NC(=O)c1cncc(NC(=O)C(=O)N2CCCCC2C2CCCCC2)c1 (single isomer, unassigned) [Compound 108, 5-(2-(2-cyclohexylpiperidin-1-yl)-2-oxoacetamido)nicotinamide]",> 500,> 500,> 500,> 1000,–,C (an IC50 ratio of less than 3 fold),–,–,> 1000,> 10000
"NC(=O)c1cncc(NC(=O)C(=O)N2CCCCC2C2CCCCC2)c1 (single isomer, unassigned) [Compound 113, 5-(2-(2-cyclohexylpiperidin-1-yl)-2-oxoacetamido)nicotinamide]",50 to 500,50 to 500,< 50,–,–,A (an IC50 ratio greater than or equal to 10 fold),–,> 1000,< 100,1000 to 10000
"Cc1cc(NC(=O)C(=O)N2C[C@H](C)CC[C@H]2c2cccs2)cnc1N (single isomer, unassigned) [Compound 115]",50 to 500,< 50,< 50,100 to 1000,< 100,A (an IC50 ratio greater than or equal to 10 fold),< 1000,–,–,–
"C[C@H]1CC[C@H](C2CCCCC2)N(C(=O)C(=O)Nc2cncc(C(N)=O)c2)C1 (single isomer, unassigned) [Compound 117]",> 500,> 500,50 to 500,> 1000,100 to 1000,A (an IC50 ratio greater than or equal to 10 fold),> 10000,–,–,–
